Measured values taken from patent US9186360B2, “Treatment of respiratory disorders using TRPA1 antagonists” (GLENMARK PHARMACEUTICALS S.A., priority 2011, dated 2015).

Columns and labels:
[1] = Pharmacokinetics in guinea pig upon intra-tracheal administration; type: in vivo; conditions: 500 mcg i.t.; for AUC0-24 / Cmax: mean ± SD (N = 3); for Tmax: guinea pig, other: intra-tracheal, 500 ug
Experimental: Guinea pigs were dosed intra-tracheally with Compound 52 with lactose as a vehicle. At various time points, animals were sacrificed with an overdose of urethane, trachea was exposed and BAL was performed 5 times using 5 mL PBS. Lung tissue was collected and kept at −70° C. until analysis. The BAL was centrifuged, and the cell pellet was collected and kept at −70° C. until analysis.

[2] = system: ovalbumin sensitized Brown Norway rats; test: Ovalbumin challenge in Brown Norway rats, intra-tracheal dosing (Example 3); type: in vivo, rat; conditions: i.t.
Experimental: Male Brown Norway rats were sensitized subcutaneously on day 0, 14 and 21 with 0.5 ml solution containing 20 μg/ml ovalbumin and 40 mg/ml aluminum hydroxide. Simultaneously animals were injected intraperitoneally (i.p.) with 0.25 ml of B. pertussis vaccine/rat containing 4×10^8 heat killed bacilli/ml. Rats were challenged with 1% aerosolized ovalbumin on Day 28 following sensitization.
Test compounds were triturated and volume was made up with Normal Saline (0.9% NaCl). Animals were administered Compound 52 intra-tracheally 1 hour before ovalbumin challenge. Animals were sacrificed 48 hours after ovalbumin challenge and BAL was performed as mentioned in Example 2. The pooled BAL was used to determined total number of cells using a hemocytometer. Further, cell differential study was performed according to Example 2.
The total number of eosinophils in each BAL sample was calculated using the formula: […]
Percent inhibition of eosinophils was calculated using the following formula: […]
(§1) The data was statistically evaluated by ANOVA followed by Dunnett's multiple comparisons test.

[3] = system: ovalbumin sensitized Dunkin Hartley guinea pigs; test: Ovalbumin induced asthma model in guinea pigs, intra-tracheal dosing; type: in vivo, guinea pig; conditions: for Percent inhibition of eosinophils: BAL 48 hours after challenge; for Airway conductance sGAW (AUC): 4 hours before ovalbumin challenge
Experimental: Healthy male Dunkin Hartley guinea pigs weighing between 300-400 gm were sensitized on day 0 with (5 mg) and on day 2 with (10 mg) of ovalbumin (Ova) and 10 mg of aluminum hydroxide gel given intra peritoneal (i.p.). Guinea pigs were challenged with 0.3% aerosolized ovalbumin on Day 21 following sensitization.
Actively sensitized male guinea pigs with free access to water, were fasted overnight, and used for the studies. Animals were assigned to one of the following groups during each experiment as per Table 2 below.
Guinea pigs were dosed intra-tracheally with Compound 52 or vehicle 4 hours before exposure to aerosolized ovalbumin challenge. The control group of animals received vehicle (Lactose powder—2 mg/animal, i.t.) only.
Broncho Alveolar Lavage (BAL) was performed at 48 hours after challenge with ovalbumin. Animals were anesthetized with an overdose of urethane, trachea was exposed and BAL was performed 5 times using 5 mL PBS. All aspirates of BAL were pooled and total number of cells determined using a hemocytometer. The BAL was centrifuged, and the cell pellet re-suspended in 50 μL guinea pig serum and used for preparation of smears. Slides were stained with Giemsa stain and a differential cell count of 500 cells based on standard morphology was performed manually.
The total number of eosinophils in each BAL sample was calculated using the formula:
[formula] Percent inhibition of eosinophils was calculated using the following formula: […]
The results for the bronchoconstriction part were calculated as percent (%) change in sGaw from saline base-line readings with saline taken just 1 minute before the antigen challenge and reported as peak change (mean±S.E.M.) for every 5 minutes for a total duration of 30 min after OA challenge. Area under the curve (AUC) was determined for each animal using GraphPad Prism. The percent (%) increase in AUC in the treated group relative to the vehicle group was calculated. Data was statistically analyzed using ANOVA and Dunnett's post hoc test.

human TRPV3 = human TRPV3 (Homo sapiens (Human), UniProt Q8NET8); test: Radiometric calcium selectivity assay, CHO cells expressing human TRPV3 (2-aminoethoxydiphenyl borate); type: cell-based; conditions: read-out: IC50 values hTRPV3
Sequence of human TRPV3 (Q8NET8 whole entry): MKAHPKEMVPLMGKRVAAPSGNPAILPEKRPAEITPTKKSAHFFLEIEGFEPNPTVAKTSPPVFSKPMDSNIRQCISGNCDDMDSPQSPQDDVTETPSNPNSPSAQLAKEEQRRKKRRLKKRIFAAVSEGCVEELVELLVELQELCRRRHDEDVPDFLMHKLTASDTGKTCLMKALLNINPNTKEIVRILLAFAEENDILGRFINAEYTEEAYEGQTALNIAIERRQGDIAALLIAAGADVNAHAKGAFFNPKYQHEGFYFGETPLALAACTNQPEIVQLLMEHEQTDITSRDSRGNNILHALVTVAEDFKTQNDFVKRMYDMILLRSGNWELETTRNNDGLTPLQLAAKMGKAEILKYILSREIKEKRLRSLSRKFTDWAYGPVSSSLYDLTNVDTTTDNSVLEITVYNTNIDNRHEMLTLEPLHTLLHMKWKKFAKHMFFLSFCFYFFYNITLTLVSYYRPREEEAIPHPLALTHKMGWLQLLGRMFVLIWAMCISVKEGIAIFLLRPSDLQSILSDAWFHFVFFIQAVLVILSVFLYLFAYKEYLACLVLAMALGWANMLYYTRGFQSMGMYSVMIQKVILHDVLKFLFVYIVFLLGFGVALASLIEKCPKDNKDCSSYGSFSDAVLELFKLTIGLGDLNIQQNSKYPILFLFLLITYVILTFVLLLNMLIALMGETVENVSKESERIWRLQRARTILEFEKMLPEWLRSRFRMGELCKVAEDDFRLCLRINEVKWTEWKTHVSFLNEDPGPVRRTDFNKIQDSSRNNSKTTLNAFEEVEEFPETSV

[4] = system: LPS exposed Brown Norway rats; test: Aerosolized LPS induced airway inflammation in Brown Norway rats; type: in vivo, rat; conditions: i.t. 4 hours before LPS; Compound 52 1000 μg/animal, Compound 90 2000 μg/animal; BAL 12 hours
Experimental: Male Brown Norway rats were exposed to aerosolized Lipopolysaccharide (LPS) (100 μg/ml) for 40 minutes at 1.8 bar pressure using a nebulizer (Hudson Respiratory Care Incorporated), phosphate buffered saline (PBS) control animals were exposed to hyrdroxylamine hydrochloride in PBS.
Test compounds were triturated and volume was made up with either distilled water or normal saline (0.9% NaCl). Animals were administered Compound 52 and Compound 90 intra-treacheally 4 hours before LPS aerosolized exposure. Animals were sacrificed 12 hours after aerosolized exposure. The control group of animals received only 2 mg Lactose/100 μl distilled water/animal intratracheally or normal saline 100 μl/animal intratracheally.
Broncho alveolar lavage (BAL) was performed at approximately 12 hours after aerosolized exposure. Animals were euthanized with an overdose of urethane, trachea was exposed and BAL was performed 5 times using 2 ml PBS. All aspirates of BAL were pooled and total number of cells determined using a hemocytometer. BALFwas centrifuged. […]
The total number of neutrophils in each BAL sample was calculated using the formula:
[formula] Percent inhibition of neutrophils was calculated using the following formula:
[formula] Data was statistically evaluated by ANOVA followed by Dunnett's multiple comparisons test. […]

human TRPV1 = human TRPV1 (Homo sapiens (Human), UniProt Q8NER1); test: Radiometric calcium selectivity assay, CHO cells expressing human TRPV1 (capsaicin); type: cell-based; conditions: read-out: IC50 values hTRPV1
Sequence of human TRPV1 (Q8NER1 whole entry): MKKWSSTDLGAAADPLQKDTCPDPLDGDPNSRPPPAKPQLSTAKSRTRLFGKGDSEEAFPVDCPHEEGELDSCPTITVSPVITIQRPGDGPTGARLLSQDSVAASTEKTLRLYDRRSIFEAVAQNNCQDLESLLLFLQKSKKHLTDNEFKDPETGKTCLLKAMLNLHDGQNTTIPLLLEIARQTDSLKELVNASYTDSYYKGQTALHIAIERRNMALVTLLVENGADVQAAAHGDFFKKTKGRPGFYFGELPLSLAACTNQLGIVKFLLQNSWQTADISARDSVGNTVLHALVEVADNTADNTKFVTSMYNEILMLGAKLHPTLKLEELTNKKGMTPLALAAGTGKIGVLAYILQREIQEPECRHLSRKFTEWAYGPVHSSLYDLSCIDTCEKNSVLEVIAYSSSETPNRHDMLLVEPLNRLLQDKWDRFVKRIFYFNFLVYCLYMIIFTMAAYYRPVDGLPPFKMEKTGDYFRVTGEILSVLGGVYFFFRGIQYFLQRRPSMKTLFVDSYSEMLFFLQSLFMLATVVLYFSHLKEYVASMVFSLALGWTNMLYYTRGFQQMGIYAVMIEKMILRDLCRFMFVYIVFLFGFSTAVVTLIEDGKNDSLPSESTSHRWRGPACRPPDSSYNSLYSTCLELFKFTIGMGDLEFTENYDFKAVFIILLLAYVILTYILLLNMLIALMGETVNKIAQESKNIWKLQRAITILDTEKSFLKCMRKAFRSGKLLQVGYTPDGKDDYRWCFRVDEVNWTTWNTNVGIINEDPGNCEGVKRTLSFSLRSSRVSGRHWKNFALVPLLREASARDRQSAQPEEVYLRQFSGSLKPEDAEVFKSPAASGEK

human TRPM8 = human TRPM8 (Homo sapiens (Human), UniProt Q7Z2W7); test: Radiometric calcium selectivity assay, CHO cells expressing human TRPM8 (icilin); type: cell-based; conditions: read-out: IC50 values hTRPM8
Sequence of human TRPM8 (Q7Z2W7 whole entry): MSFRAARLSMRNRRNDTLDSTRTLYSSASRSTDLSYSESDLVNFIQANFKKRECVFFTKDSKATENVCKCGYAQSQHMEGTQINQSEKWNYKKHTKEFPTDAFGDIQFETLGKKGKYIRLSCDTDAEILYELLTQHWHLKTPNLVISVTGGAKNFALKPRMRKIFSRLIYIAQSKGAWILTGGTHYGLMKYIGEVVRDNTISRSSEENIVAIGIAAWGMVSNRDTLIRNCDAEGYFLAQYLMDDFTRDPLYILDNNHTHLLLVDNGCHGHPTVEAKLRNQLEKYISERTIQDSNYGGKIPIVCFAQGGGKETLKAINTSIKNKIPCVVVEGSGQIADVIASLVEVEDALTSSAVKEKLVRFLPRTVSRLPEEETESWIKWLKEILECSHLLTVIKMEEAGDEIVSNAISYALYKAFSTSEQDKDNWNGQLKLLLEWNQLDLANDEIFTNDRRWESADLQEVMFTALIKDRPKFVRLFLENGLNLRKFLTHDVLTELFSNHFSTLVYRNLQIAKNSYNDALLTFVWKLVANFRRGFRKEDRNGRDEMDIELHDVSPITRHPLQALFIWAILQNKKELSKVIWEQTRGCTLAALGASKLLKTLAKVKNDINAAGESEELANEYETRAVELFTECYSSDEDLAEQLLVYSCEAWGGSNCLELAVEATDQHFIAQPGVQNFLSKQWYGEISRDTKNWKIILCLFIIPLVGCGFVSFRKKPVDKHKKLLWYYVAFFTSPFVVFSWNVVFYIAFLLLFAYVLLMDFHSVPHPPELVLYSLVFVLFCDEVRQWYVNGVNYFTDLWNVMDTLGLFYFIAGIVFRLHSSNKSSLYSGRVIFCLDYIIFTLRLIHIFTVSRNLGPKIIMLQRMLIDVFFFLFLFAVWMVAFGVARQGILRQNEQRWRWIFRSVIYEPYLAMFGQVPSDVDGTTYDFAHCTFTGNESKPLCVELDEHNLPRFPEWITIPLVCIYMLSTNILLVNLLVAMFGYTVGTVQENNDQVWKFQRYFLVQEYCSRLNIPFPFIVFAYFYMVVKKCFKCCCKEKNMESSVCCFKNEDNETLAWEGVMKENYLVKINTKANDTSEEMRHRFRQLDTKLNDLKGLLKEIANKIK

[5] = system: ovalbumin sensitized Brown Norway rats; test: Ovalbumin asthma model in Brown Norway rats (Example 5); type: in vivo, rat; conditions: i.t. 1 hour before ovalbumin challenge, BAL 48 hours; dose dependent
Experimental: Male BN rats were sensitized subcutaneously (s.c.) on day 0, 14 and 21 with 0.5 ml solution containing 20 μg/ml ovalbumin (Ova) and 40 mg/ml aluminum hydroxide. Simultaneously the animals were injected intraperitoneally (i.p.) with 0.25 ml of B. pertussis vaccine/rat containing 4×10^8 heat killed bacilli/ml. The rats were challenged with 1% aerosolized ovalbumin on Day 28 following sensitization.
Test compounds were triturated and volume was made up with Normal Saline (0.9% NaCl). Animals were administered TRPA1 antagonists (Compound 52, Compound 73, Compound 84, Compound 90 and Compound 92) intra-tracheally (i.t.) 1 hour and fluticasone 24 hours and 1 hour before ovalbumin challenge. Animals were sacrificed 48 hours after ovalbumin challenge.
BAL was performed at approximately 48 hours after ovalbumin challenge and the pooled BAL was used to determined total number of cells and for cell differential study (according to Example 2).
The total number of eosinophils in each BAL sample and % inhibition of eosinophils were calculated according to Example 3
as §1

human TRPV4 = human TRPV4 (Homo sapiens (Human), UniProt Q9HBA0); test: Radiometric calcium selectivity assay, CHO cells expressing human TRPV4 (4α-phorbol 12,13-didecanoate); type: cell-based; conditions: read-out: IC50 values hTRPV4
Sequence of human TRPV4 (Q9HBA0 whole entry): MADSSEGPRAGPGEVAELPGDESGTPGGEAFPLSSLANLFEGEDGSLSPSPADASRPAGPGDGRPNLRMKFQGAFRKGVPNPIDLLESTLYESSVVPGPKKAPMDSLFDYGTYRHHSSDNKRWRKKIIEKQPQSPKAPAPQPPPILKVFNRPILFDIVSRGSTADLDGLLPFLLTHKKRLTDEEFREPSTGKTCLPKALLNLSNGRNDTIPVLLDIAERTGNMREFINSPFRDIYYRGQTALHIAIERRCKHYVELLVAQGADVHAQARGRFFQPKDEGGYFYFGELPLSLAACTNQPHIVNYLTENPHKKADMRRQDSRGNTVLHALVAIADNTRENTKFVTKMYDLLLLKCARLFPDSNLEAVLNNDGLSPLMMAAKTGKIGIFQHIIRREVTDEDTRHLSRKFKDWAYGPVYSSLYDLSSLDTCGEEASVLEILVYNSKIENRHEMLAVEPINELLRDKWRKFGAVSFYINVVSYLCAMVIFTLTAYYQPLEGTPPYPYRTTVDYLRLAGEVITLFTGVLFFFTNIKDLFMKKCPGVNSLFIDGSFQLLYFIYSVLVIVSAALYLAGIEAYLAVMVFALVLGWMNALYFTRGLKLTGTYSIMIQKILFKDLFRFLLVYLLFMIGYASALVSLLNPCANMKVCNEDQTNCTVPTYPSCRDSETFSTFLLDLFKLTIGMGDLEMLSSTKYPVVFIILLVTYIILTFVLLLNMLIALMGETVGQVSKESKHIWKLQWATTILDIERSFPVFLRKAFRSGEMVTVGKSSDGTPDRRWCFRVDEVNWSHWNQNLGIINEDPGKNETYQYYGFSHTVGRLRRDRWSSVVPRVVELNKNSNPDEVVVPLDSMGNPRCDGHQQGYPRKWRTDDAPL

Cn1c(=O)c2c(CC(=O)Nc3nc(-c4ccc(F)c(C(F)(F)F)c4F)cs3)csc2n(C)c1=O [Compound 52]
AUC0-24 ([1]; Cell Pellet (BAL)): 70390 ± 12071 ng · h/ml or g | Cmax ([1]; Cell Pellet (BAL)): 6726 ± 2049 ng/ml or g | AUC0-24 ([1]; Lung Tissue): 103786 ± 28285 ng · h/ml or g | Cmax ([1]; Lung Tissue): 4989 ± 2548 ng/ml or g | Tmax ([1]; Cell Pellet (BAL)): 0.25 h | Tmax ([1]; Lung Tissue): 8 h | ED50, inhibition of pulmonary eosinophilia [2]: 213 µg | Percent inhibition of eosinophils ([3]; dose 125 μg/animal i.t.): 61% | Percent inhibition of eosinophils ([3]; dose 250 μg/animal i.t.): 87% | Percent inhibition of eosinophils ([3]; dose 500 μg/animal i.t.): 68% | Airway conductance sGAW (AUC) ([3]; dose 25 (table μg/kg; text μg/animal) i.t.): 1399 | Percent improvement in airway conductance ([3]; dose 25 i.t.): 0% | Percent inhibition of eosinophils ([3]; dose 25 i.t.): 0% | Percent improvement in airway conductance ([3]; dose 50 i.t.): 7% | Airway conductance sGAW (AUC) ([3]; dose 50 i.t.): 1592 | Percent inhibition of eosinophils ([3]; dose 50 i.t.): 0% | Percent improvement in airway conductance ([3]; dose 125 i.t.): 39% | Airway conductance sGAW (AUC) ([3]; dose 125 i.t.): 1943 | Percent improvement in airway conductance ([3]; dose 250 i.t.): 45% | Airway conductance sGAW (AUC) ([3]; dose 250 i.t.): 2004 | Percent improvement in airway conductance ([3]; dose 500 i.t.): 43% | Airway conductance sGAW (AUC) ([3]; dose 500 i.t.): 1987 | inhibition of eosinophils ([3]; dose not stated for this figure): 75%

COCCCOc1cccc(C2NC(=S)NC3=C2C(=O)c2ccccc23)c1 (stereo not drawn) [Compound 90]
IC50 (human TRPV3): > 10 µM | neutrophils in BALF [4]: significant inhibition | total leukocytes in BALF [4]: significant inhibition | IC50 (human TRPV1): > 10 µM | IC50 (human TRPM8): > 10 µM | pulmonary eosinophilia [5]: significant inhibition | IC50 (human TRPV4): > 10 µM
